Results taken from the supplement of paper PMC5908809.

Legend:
[1] = tested on: normal primary NK cells, pool 1 (3 donors), resting (IL-2 0 ng/mL); assay: drug sensitivity score (DSS) (DSS units); higher = more sensitive; extreme values may be limits of the assay; details: 72 h
NK-YS (IL-2 2.5 ng/mL) [2] = assay: as above; details: 72 h
[3] = tested on: normal primary NK cells, pool 2 (3 donors) (IL-2 2.5 ng/mL); assay: as above; details: 72 h
SNK-6 (IL-2 2.5 ng/mL) [4] = assay: as above; details: 72 h
KHYG-1 (IL-2 2.5 ng/mL) [5] = assay: as above; details: 72 h
NKL (IL-2 2.5 ng/mL) [6] = assay: as above; details: 72 h
[7] = tested on: normal primary NK cells, pool 1 (3 donors) (IL-2 2.5 ng/mL); assay: as above; details: 72 h
[8] = tested on: normal primary NK cells, pool 3 (3 donors) (IL-2 2.5 ng/mL); assay: as above; details: 72 h
YT (IL-2 2.5 ng/mL) [9] = assay: as above; details: 72 h
IMC-1 (IL-2 20 ng/mL) [10] = assay: as above; details: 72 h
NK-92 (IL-2 2.5 ng/mL) [11] = assay: as above; details: 72 h
KAI3 (IL-2 2.5 ng/mL) [12] = assay: as above; details: 72 h
DERL-7 (IL-2 2.5 ng/mL) [13] = assay: as above; details: 72 h
[14] = tested on: normal NK cells expanded with K562-aAPC; assay: as above; details: 72 h; IL-2 2.5 ng/mL
Description: (§1)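 Drug sensitivity and resistance testing on K562-aAPC-expanded normal NK cells: 5 concentrations (10-fold steps over a 10,000-fold range), 72 h at 37 °C, viability by CellTiter-Glo normalised to DMSO and benzethonium chloride controls; DSS from the fitted curve.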

[15] = tested on: normal NK cells expanded with K562-aAPC; assay: percent inhibition of viability; higher = more inhibition; details: 72 h, IL-2 2.5 ng/mL
Description: as §1

[16] = tested on: normal primary NK cells, pool 1 (3 donors), resting (IL-2 0 ng/mL); assay: as above; details: 72 h
NK-YS (IL-2 2.5 ng/mL) [17] = assay: as above; details: 72 h
[18] = tested on: normal primary NK cells, pool 2 (3 donors) (IL-2 2.5 ng/mL); assay: as above; details: 72 h
SNK-6 (IL-2 2.5 ng/mL) [19] = assay: as above; details: 72 h
KHYG-1 (IL-2 2.5 ng/mL) [20] = assay: as above; details: 72 h
NKL (IL-2 2.5 ng/mL) [21] = assay: as above; details: 72 h
[22] = tested on: normal primary NK cells, pool 1 (3 donors) (IL-2 2.5 ng/mL); assay: as above; details: 72 h
[23] = tested on: normal primary NK cells, pool 3 (3 donors) (IL-2 2.5 ng/mL); assay: as above; details: 72 h
YT (IL-2 2.5 ng/mL) [24] = assay: as above; details: 72 h
IMC-1 (IL-2 20 ng/mL) [25] = assay: as above; details: 72 h
NK-92 (IL-2 2.5 ng/mL) [26] = assay: as above; details: 72 h
KAI3 (IL-2 2.5 ng/mL) [27] = assay: as above; details: 72 h
DERL-7 (IL-2 2.5 ng/mL) [28] = assay: as above; details: 72 h

CCC1=C[C@@H]2CN(C1)Cc1c([nH]c3ccccc13)[C@@](C(=O)OC)(c1cc3c(cc1OC)N(C)[C@H]1[C@@](O)(C(=O)OC)[C@H](OC(C)=O)[C@]4(CC)C=CCN5CC[C@]31[C@@H]54)C2 [Vinorelbine] (max concentration tested 10000 nM)
Details	drug sensitivity score
DERL-7 (IL-2 2.5 ng/mL) [13]	40.4
IMC-1 (IL-2 20 ng/mL) [10]	42.8
KAI3 (IL-2 2.5 ng/mL) [12]	27.1
KHYG-1 (IL-2 2.5 ng/mL) [5]	37.3
NK-92 (IL-2 2.5 ng/mL) [11]	31.6
NK-YS (IL-2 2.5 ng/mL) [2]	33.5
NKL (IL-2 2.5 ng/mL) [6]	39.5
SNK-6 (IL-2 2.5 ng/mL) [4]	40.6
YT (IL-2 2.5 ng/mL) [9]	38.2
[1]	7.49
[3]	3.94
[7]	2.8
[8]	4.42
[14]	20.7

percent inhibition of viability [%]
Details	1 nM	10 nM	100 nM	1000 nM	10000 nM
DERL-7 (IL-2 2.5 ng/mL) [28]	-3.93	85.2	98.5	98.5	100
IMC-1 (IL-2 20 ng/mL) [25]	-0.83	99.3	99.7	100	101
KAI3 (IL-2 2.5 ng/mL) [27]	-0.08	44.9	58.9	70.4	70.2
KHYG-1 (IL-2 2.5 ng/mL) [20]	2.76	57.8	97.2	103	105
NK-92 (IL-2 2.5 ng/mL) [26]	-12.5	23.4	88.8	98.5	102
NK-YS (IL-2 2.5 ng/mL) [17]	10.7	66.4	64.9	84.2	90
NKL (IL-2 2.5 ng/mL) [21]	3.63	84.8	93.6	93.9	93.2
SNK-6 (IL-2 2.5 ng/mL) [19]	22.5	78.3	84.4	96.7	96.5
YT (IL-2 2.5 ng/mL) [24]	0.44	65.8	95.2	98.7	100
[15]	1.8	11.8	57.4	59.7	79
[16]	-1.44	-3.84	-0.59	21.5	76.9
[18]	-13.5	0.55	18.7	12.3	39.7
[22]	-4.33	-2.37	-0.15	4.78	40.3
[23]	-16.2	-7.94	14.5	19.8	32.1

CC(C)C[C@H](NC(=O)[C@H](CCc1ccccc1)NC(=O)CN1CCOCC1)C(=O)N[C@@H](Cc1ccccc1)C(=O)N[C@@H](CC(C)C)C(=O)[C@@]1(C)CO1 [Carfilzomib] (max concentration tested 1000 nM)
Details	drug sensitivity score
DERL-7 (IL-2 2.5 ng/mL) [13]	37.2
IMC-1 (IL-2 20 ng/mL) [10]	30.3
KAI3 (IL-2 2.5 ng/mL) [12]	34.8
KHYG-1 (IL-2 2.5 ng/mL) [5]	30.9
NK-92 (IL-2 2.5 ng/mL) [11]	33.1
NK-YS (IL-2 2.5 ng/mL) [2]	30.9
NKL (IL-2 2.5 ng/mL) [6]	29.9
SNK-6 (IL-2 2.5 ng/mL) [4]	31.1
YT (IL-2 2.5 ng/mL) [9]	30.6
[1]	34.1
[3]	33.4
[7]	34
[8]	31.4
[14]	29.7

percent inhibition of viability [%]
Details	0.1 nM	1 nM	10 nM	100 nM	1000 nM
DERL-7 (IL-2 2.5 ng/mL) [28]	0.47	55.2	101	101	101
IMC-1 (IL-2 20 ng/mL) [25]	-4.55	-1.82	100	101	101
KAI3 (IL-2 2.5 ng/mL) [27]	-4.59	28.8	101	105	107
KHYG-1 (IL-2 2.5 ng/mL) [20]	-8.88	2.3	101	105	105
NK-92 (IL-2 2.5 ng/mL) [26]	1.15	15.4	101	106	106
NK-YS (IL-2 2.5 ng/mL) [17]	-4.19	3.04	101	104	105
NKL (IL-2 2.5 ng/mL) [21]	-2.93	-11	102	106	108
SNK-6 (IL-2 2.5 ng/mL) [19]	-4.32	5.11	99.5	101	101
YT (IL-2 2.5 ng/mL) [24]	-5.39	1.26	100	105	105
[15]	-5.98	-4.15	96.8	101	101
[16]	-8.37	33.8	94	98.4	98.3
[18]	-2.72	22.8	97.1	99.5	99.7
[22]	-1.09	26.1	97.9	99.6	99.8
[23]	-8.33	11.5	94.8	100	101

CN1CCN(CCOc2cc(OC3CCOCC3)c3c(Nc4c(Cl)ccc5c4OCO5)ncnc3c2)CC1 [Saracatinib] (max concentration tested 10000 nM)
Details	drug sensitivity score
DERL-7 (IL-2 2.5 ng/mL) [13]	6.92
IMC-1 (IL-2 20 ng/mL) [10]	5.54
KAI3 (IL-2 2.5 ng/mL) [12]	4.31
KHYG-1 (IL-2 2.5 ng/mL) [5]	4.35
NK-92 (IL-2 2.5 ng/mL) [11]	6.22
NK-YS (IL-2 2.5 ng/mL) [2]	3.64
NKL (IL-2 2.5 ng/mL) [6]	2.2
SNK-6 (IL-2 2.5 ng/mL) [4]	0.27
YT (IL-2 2.5 ng/mL) [9]	7.37
[1]	7.66
[3]	0
[7]	2.04
[8]	0
[14]	6.3

percent inhibition of viability [%]
Details	1 nM	10 nM	100 nM	1000 nM	10000 nM
DERL-7 (IL-2 2.5 ng/mL) [28]	-0.15	1.98	7.09	17.7	74.7
IMC-1 (IL-2 20 ng/mL) [25]	-4.77	-2.25	-2.36	-0.89	100
KAI3 (IL-2 2.5 ng/mL) [27]	-1.92	-9.84	-6.46	7.42	56.8
KHYG-1 (IL-2 2.5 ng/mL) [20]	-5.13	-8	-4.22	0.25	77.8
NK-92 (IL-2 2.5 ng/mL) [26]	-2.32	4.14	9.55	18.4	68.4
NK-YS (IL-2 2.5 ng/mL) [17]	-1.8	-3.94	-0.18	5.62	51.1
NKL (IL-2 2.5 ng/mL) [21]	-14.8	-18.5	-9.99	-5.02	48.9
SNK-6 (IL-2 2.5 ng/mL) [19]	-3.28	-15.1	-18	-41.3	21.7
YT (IL-2 2.5 ng/mL) [24]	-2.96	-2.67	-0.94	26.4	68.2
[15]	-1.72	-3.19	2.46	6.91	94.3
[16]	-9.8	15.2	16.2	24	85.8
[18]	-0.71	-2.6	6.1	-10.6	9.82
[22]	-9.24	11.2	7.65	-4.55	45.9
[23]	-6.07	9.22	9.63	-17.2	0.69

COc1cc2c(N3CCN(C(=O)Nc4ccc(OC(C)C)cc4)CC3)ncnc2cc1OCCCN1CCCCC1 [Tandutinib] (max concentration tested 1000 nM)
Details	drug sensitivity score
DERL-7 (IL-2 2.5 ng/mL) [13]	0
IMC-1 (IL-2 20 ng/mL) [10]	0.83
KAI3 (IL-2 2.5 ng/mL) [12]	0.84
KHYG-1 (IL-2 2.5 ng/mL) [5]	0.42
NK-92 (IL-2 2.5 ng/mL) [11]	4.33
NK-YS (IL-2 2.5 ng/mL) [2]	0
NKL (IL-2 2.5 ng/mL) [6]	0
SNK-6 (IL-2 2.5 ng/mL) [4]	0
YT (IL-2 2.5 ng/mL) [9]	0
[1]	0
[3]	0
[7]	0
[8]	0
[14]	0

percent inhibition of viability [%]
Details	0.1 nM	1 nM	10 nM	100 nM	1000 nM
DERL-7 (IL-2 2.5 ng/mL) [28]	6.14	3.13	1.63	2.2	-0.71
IMC-1 (IL-2 20 ng/mL) [25]	-5.53	-2.46	0.78	2.8	18.4
KAI3 (IL-2 2.5 ng/mL) [27]	-0.83	3.14	3.31	3.31	17.9
KHYG-1 (IL-2 2.5 ng/mL) [20]	3.28	0.15	6.9	6.14	16.8
NK-92 (IL-2 2.5 ng/mL) [26]	-7.68	0.56	17.9	8.5	19.1
NK-YS (IL-2 2.5 ng/mL) [17]	2.01	2.91	6.63	1.61	13.4
NKL (IL-2 2.5 ng/mL) [21]	-15.4	-9.75	-9.72	-2.92	7.53
SNK-6 (IL-2 2.5 ng/mL) [19]	2.47	-9.17	1.36	-17.2	-2.8
YT (IL-2 2.5 ng/mL) [24]	1.06	0.08	6.39	-0.96	9.65
[15]	0.5	4.31	2.45	1.29	8.72
[16]	6.87	-8.83	-1.76	-7.72	-7.9
[18]	-9.1	2.32	-0.09	-2.34	4.26
[22]	3.36	-11.3	-7.24	-22	-12.1
[23]	-11.8	-8.39	-1.84	-4.05	-10.6
